# From patent EP3389640B1, “PHARMACEUTICAL COMPOSITION COMPRISING ANHYDROUS DASATINIB” (Synthon B.V., priority 2015, dated 2017)
# Read-outs that look alike come from different tables or passages of the source.
# Tests used:
# Type in all cases: physicochemical
# [1] = form conversion during wet granulation in water; conditions: during the process of granulation in water
# Method: The wet granulation process is performed with a granulation solvent selected from the group consisting of water, acetone, ethanol, isopropanol or a mixture thereof.
# [2] = stability of tablets stored at 40°C/75% RH (assay and impurities); conditions: triacetin used as plasticizer in the coating formulation
# Text: The intragranular components were blended with water in a high shear mixer. The resulting granulate was dried in a fluid bed dryer. The granulate was sieved through an appropriate mesh size sieve. Microcrystalline cellulose and croscarmellose sodium were sieved through a suitable mesh size sieve for deagglomeration. The excipients were mixed with the sieved granulate in a diffusion mixer. Magnesium stearate was sieved through an appropriate sieve to deagglomerate and mixed with the powder mix in a diffusion mixer. The homogeneous powder obtained, was compressed using a rotating tablet press using appropriate punches. Part of the tablets were coated with a water suspension of Opadry® II White 31K28459 coating until 3% weight gain (= […]). The tablets were packed in suitable packaging material and were stored at 40°C/75% RH.
# Hydroxypropyl cellulose was dissolved in water and blended with the other intragranular components in a high shear mixer. The resulting granulate was dried in a fluid bed dryer. The granulate was sieved through an appropriate mesh size sieve. Microcrystalline cellulose and croscarmellose sodium were sieved through a suitable mesh size sieve for deagglomeration. The excipients were mixed with the sieved granulate in a tumbling mixer. […]
# [3] = solubility at different pH values
# Text: Table 1 gives an overview of the solubility of anhydrous dasatinib ("N-6") and dasatinib monohydrate ("H1-7") at different pH values. Table 1: solubility of anhydrous dasatinib ("N-6") and dasatinib monohydrate ("H1-7")
reaction with the organic ester triacetin [2],solubility ([3]; pH 1.2),"solubility ([3]; pH 1.2, listed as anhydrous form ""N-6"")","solubility ([3]; pH 4.5, aqueous buffer, pH 4.5, read-out: solubility)",solubility ([3]; pH 6.8),"solubility ([3]; pH 1.2, listed as dasatinib monohydrate ""H1-7"")",solubility ([3]; pH 4.5),SMILES,conversion into dasatinib monohydrate [1]
does not react,34510 µg/mL,34510 µg/mL,179 µg/mL,1.8 µg/mL,,,"Cc1nc(Nc2ncc(C(=O)Nc3c(C)cccc3Cl)s2)cc(N2CCN(CCO)CC2)n1 [Anhydrous dasatinib (""N-6""), N-(2-chloro-6-methylphenyl)-2-[[6-[4-(2-hydroxyethyl)-1-piperazinyl]-2-methyl-4-pyrimidinyl]amino]-5-thiazolecarboxamide]",does not convert into dasatinib monohydrate
,2850 µg/mL,,,0.6 µg/mL,2850 µg/mL,134 µg/mL,"Cc1nc(Nc2ncc(C(=O)Nc3c(C)cccc3Cl)s2)cc(N2CCN(CCO)CC2)n1 [Dasatinib monohydrate (""H1-7""), N-(2-chloro-6-methylphenyl)-2-[[6-[4-(2-hydroxyethyl)-1-piperazinyl]-2-methyl-4-pyrimidinyl]amino]-5-thiazolecarboxamide]",
